Test results as given in patent US7118895B2, “Process for producing aglycon by using diglycosidase and flavor-improved food containing the aglycon and converting agent to be used in the process” (Amano Enzyme Inc., priority 2000, dated 2006).

Assays:
[1] = test system: β-Glucosidase derived from A. niger; test: Reactivity toward various isoflavone glycosides (HPLC); assay type: biochemical, Aspergillus niger; parameters: glucoside / aglycon: unit not given here; settings: 55 °C, pH 4.0
Method: (§1) Diglycosidase was diluted with an acetate buffer of pH 4.0 to prepare a 0.75 AU/mL enzyme solution. As references, a similar operation was conducted using β-glucosidase (manufactured by Fluka) derived from Aspergillus niger, β-glucosidase (manufactured by Sigma) derived from almond, β-xylosidase derived from pectinase G (manufactured by Amano Enzyme Inc.). Each of purified products of isoflavone glycosides (glycitin, acetylglycitin, malonylglycitin, daidzin, acetyldaidzin, malonyldaidzin, genistin, acetylgenistin, malonylgenistin, all manufactured by Nacalai Tesque, Inc.) was dissolved in methanol to prepare each 2 mM substrate solution. The reaction was carried out by mixing 10 μL of a substrate solution, 200 μL of 20 mM acetate buffer (pH 4.0), and 40 μL of each purified enzyme solution at a total liquid volume of 250 μL. The reaction was carried out at 55° C. and isolation of an aglycon isoflavone from an isoflavone glycoside in the reaction mixture was detected by HLPC at 0, 1, 3, and 6 hours of the reaction.
(§2) To the reaction mixture was added 700 μL of ethanol, followed by stirring and ultrasonication. After centrifugation at 15,000 rpm and 4° C. for 10 minutes, the supernatant was filtered through a filter and then the filtrate was applied to HPLC.
(§3) The isoflavone glycoside and aglycon isoflavone contained in the filtrate was separated and detected by a high performance liquid chromatography (HPLC, Shimadzu CLASS LC-10 system) using TOSOH TSK gel ODS-80TM column (manufactured by Tosoh Corporation). […] The absorbance at 260 nm was detected by a UV detector (Shimadzu, SPD-10AV). Using purified products (manufactured by Nacalai Tesque, Inc.) of the above isoflavone glycosides and aglycon isoflavones, the isoflavone glycoside and aglycon isoflavone were quantitatively determined according to a calibration curve method. By the way, unless otherwise stated, the measuring conditions of HPLC herein mean those described in the example.

[2] = test system: β-Xylosidase derived from pectinase G; test: as above; assay type: biochemical; parameters: unit not given here; settings: 55 °C, pH 4.0
Method: as §1, §2, §3

[3] = test system: β-Glucosidase derived from almond; test: as above; assay type: biochemical; parameters: unit not given here; settings: 55 °C, pH 4.0
Method: as §1, §2, §3

[4] = test system: Diglycosidase derived from A. fumigatus; test: as above; assay type: biochemical, Aspergillus fumigatus; parameters: unit not given here; settings: 55 °C, pH 4.0
Method: as §1, §2, §3

Purified diglycosidase = test: Influence of free glucose on diglycosidase activity; assay type: biochemical, Penicillium multicolor IAM7153; settings: isolated aglycon amount at glucose 0% and 0.5 hour = 100%
Method: Purified diglycosidase was diluted with 20 mM acetate buffer of pH 4.0 to prepare a 0.75 AU/mL enzyme solution.
With a glucose solution was mixed 10 μL of each 2 mM substrate solution described in Example 2, and 20 mM acetate buffer of pH 4.0 was added thereto to be a liquid volume of 210 μL. Further, 40 μL of the enzyme solution was added and reaction was carried out at a final liquid volume of 250 μL. Adjustment of the glucose solution to be added allows glucose to exist in the reaction mixture in the range of 0 to 20%. The reaction was carried out at 55° C. and the existence of isoflavone glycosides and aglycon isoflavones was detected by HLPC at 0, 0.5, 1, and 3 hours of the reaction.

Structure (SMILES) | aglycon ([1]; Reaction time 0 h) | glucoside ([1]; Reaction time 0 h) | aglycon ([1]; Reaction time 1 h) | glucoside ([1]; Reaction time 1 h) | aglycon ([1]; Reaction time 3 h) | glucoside ([1]; Reaction time 3 h) | aglycon ([1]; Reaction time 6 h) | glucoside ([1]; Reaction time 6 h) | aglycon ([2]; Reaction time 0 h) | glucoside ([2]; Reaction time 0 h) | aglycon ([2]; Reaction time 1 h) | glucoside ([2]; Reaction time 1 h) | aglycon ([2]; Reaction time 3 h) | glucoside ([2]; Reaction time 3 h) | aglycon ([2]; Reaction time 6 h) | glucoside ([2]; Reaction time 6 h) | aglycon ([3]; Reaction time 0 h) | glucoside ([3]; Reaction time 0 h) | aglycon ([3]; Reaction time 1 h) | glucoside ([3]; Reaction time 1 h) | further results
O=c1c(-c2ccc(O)cc2)coc2cc(O[C@@H]3O[C@H](CO)[C@@H](O)[C@H](O)[C@H]3O)cc(O)c12 [genistin] | 0 | 100 | 100 | 0 | 100 | 0 | 100 | 0 | 0 | 100 | 1.5 | 98.5 | 1.8 | 98.2 | 1.8 | 98.2 | 0 | 100 | 9.4 | 90.6 | reactivity of β-glucosidase derived from Aspergillus niger (in words) [1]: act well; aglycon ([3]; Reaction time 3 h): 11.4; glucoside ([3]; Reaction time 3 h): 88.6; aglycon ([3]; Reaction time 6 h): 11.8; glucoside ([3]; Reaction time 6 h): 88.2; aglycon ([4]; Reaction time 0 h): 0; glucoside ([4]; Reaction time 0 h): 100; aglycon ([4]; Reaction time 1 h): 0; glucoside ([4]; Reaction time 1 h): 100; aglycon ([4]; Reaction time 3 h): 0; glucoside ([4]; Reaction time 3 h): 100; aglycon ([4]; Reaction time 6 h): 0; glucoside ([4]; Reaction time 6 h): 100
CC(=O)OC[C@H]1O[C@@H](Oc2cc(O)c3c(=O)c(-c4ccc(O)cc4)coc3c2)[C@H](O)[C@@H](O)[C@@H]1O [acetylgenistin, 6″-O-acetylgenistin] | 0 | 100 | 1.4 | 98.6 | 3.3 | 96.7 | 6.2 | 93.8 | 0 | 100 | 0 | 100 | 0.2 | 99.8 | 0.5 | 99.5 | 0 | 100 | 0 | 100 | Isolation of isoflavone aglycons by diglycosidase in presence of glucose (Purified diglycosidase; Glucose concentration 0 %): 100%; Isolation of isoflavone aglycons by diglycosidase in presence of glucose (Purified diglycosidase; Glucose concentration 2 %): 104.1%; Isolation of isoflavone aglycons by diglycosidase in presence of glucose (Purified diglycosidase; Glucose concentration 4 %): 104.1%; Isolation of isoflavone aglycons by diglycosidase in presence of glucose (Purified diglycosidase; Glucose concentration 8 %): 104.1%; Isolation of isoflavone aglycons by diglycosidase in presence of glucose (Purified diglycosidase; Glucose concentration 20 %): 104.1%; aglycon ([3]; Reaction time 3 h): 0; glucoside ([3]; Reaction time 3 h): 100; aglycon ([3]; Reaction time 6 h): 0; glucoside ([3]; Reaction time 6 h): 100; aglycon ([4]; Reaction time 0 h): 0; glucoside ([4]; Reaction time 0 h): 100; aglycon ([4]; Reaction time 1 h): 12.6; glucoside ([4]; Reaction time 1 h): 87.4; aglycon ([4]; Reaction time 3 h): 22.9; glucoside ([4]; Reaction time 3 h): 77.1; aglycon ([4]; Reaction time 6 h): 35.2; glucoside ([4]; Reaction time 6 h): 64.8
CC(=O)OC[C@H]1O[C@@H](Oc2ccc3c(=O)c(-c4ccc(O)cc4)coc3c2)[C@H](O)[C@@H](O)[C@@H]1O [acetyldaidzin, 6″-O-acetyldaidzin] | 0 | 100 | 4.4 | 95.6 | 6.4 | 93.6 | 9 | 91 | 0 | 100 | 9.7 | 90.3 | 1.3 | 98.7 | 2.3 | 97.7 | 0.2 | 99.8 | 0.5 | 99.5 | Isolation of isoflavone aglycons by diglycosidase in presence of glucose (Purified diglycosidase; Glucose concentration 0 %): 100%; Isolation of isoflavone aglycons by diglycosidase in presence of glucose (Purified diglycosidase; Glucose concentration 2 %): 108.1%; Isolation of isoflavone aglycons by diglycosidase in presence of glucose (Purified diglycosidase; Glucose concentration 4 %): 112.2%; Isolation of isoflavone aglycons by diglycosidase in presence of glucose (Purified diglycosidase; Glucose concentration 8 %): 115.8%; Isolation of isoflavone aglycons by diglycosidase in presence of glucose (Purified diglycosidase; Glucose concentration 20 %): 114.5%; aglycon ([3]; Reaction time 3 h): 0.6; glucoside ([3]; Reaction time 3 h): 99.4; aglycon ([3]; Reaction time 6 h): 0.6; glucoside ([3]; Reaction time 6 h): 99.4; aglycon ([4]; Reaction time 0 h): 0; glucoside ([4]; Reaction time 0 h): 100; aglycon ([4]; Reaction time 1 h): 26.1; glucoside ([4]; Reaction time 1 h): 73.9; aglycon ([4]; Reaction time 3 h): 47.2; glucoside ([4]; Reaction time 3 h): 52.8; aglycon ([4]; Reaction time 6 h): 66.5; glucoside ([4]; Reaction time 6 h): 33.5
COc1cc2c(=O)c(-c3ccc(O)cc3)coc2cc1O[C@@H]1O[C@H](COC(=O)CC(=O)O)[C@@H](O)[C@H](O)[C@H]1O [malonylglycitin, 6″-O-malonylglycitin] | 0 | 100 | 1.2 | 98.8 | 4.4 | 95.6 | 9.1 | 90.9 | 0 | 100 | 0 | 100 | 0 | 100 | 0.4 | 99.6 | 0 | 100 | 0 | 100 | Isolation of isoflavone aglycons by diglycosidase in presence of glucose (Purified diglycosidase; Glucose concentration 0 %): 100%; Isolation of isoflavone aglycons by diglycosidase in presence of glucose (Purified diglycosidase; Glucose concentration 2 %): 121.4%; Isolation of isoflavone aglycons by diglycosidase in presence of glucose (Purified diglycosidase; Glucose concentration 4 %): 127.6%; Isolation of isoflavone aglycons by diglycosidase in presence of glucose (Purified diglycosidase; Glucose concentration 8 %): 128.6%; Isolation of isoflavone aglycons by diglycosidase in presence of glucose (Purified diglycosidase; Glucose concentration 20 %): 116.4%; aglycon ([3]; Reaction time 3 h): 0; glucoside ([3]; Reaction time 3 h): 100; aglycon ([3]; Reaction time 6 h): 0; glucoside ([3]; Reaction time 6 h): 100; aglycon ([4]; Reaction time 0 h): 0; glucoside ([4]; Reaction time 0 h): 100; aglycon ([4]; Reaction time 1 h): 0.4; glucoside ([4]; Reaction time 1 h): 99.6; aglycon ([4]; Reaction time 3 h): 0.8; glucoside ([4]; Reaction time 3 h): 99.2; aglycon ([4]; Reaction time 6 h): 1.4; glucoside ([4]; Reaction time 6 h): 98.6
